# Earlier results in patent publication US20210244941A1, “METHODS AND APPARATUS FOR A WEARABLE ELECTRONIC DIGITAL THERAPEUTIC DEVICE” (KINAPTIC, LLC, priority 2018, published 2021).
# Where two headings read alike, the source gives them in different places.
# Tests used:
# [1] = rats, oral dosing
# [2] = dogs, oral dosing
# [3] = not given; remark: listed apart in the source
# [4] = single- (up to 80 mg) and multiple-dose studies, healthy subjects and patients
Structure (SMILES),"sweat induction (sweat glands; gel containing carbachol on sensors, sedentary patient)","physical sensation or discomfort (sweat glands; iontophoresis, electrical current at 0.2 milliamps into upper layer of skin)",absolute bioavailability [1],absolute bioavailability [2],increase in area under the concentration-time curve (AUC) (animal models),"absorption after oral dosing (animal models, oral dosing)","excretion (rats and dogs, renal and faecal/biliary routes)","absorption ([3]; single doses, humans)","oral bioavailability ([3]; single doses, humans)","safety and tolerability ([3]; single doses, humans)","accumulation [3, 4]","pharmacokinetics versus dose [3, 4]"
C[N+](C)(C)CCOC(N)=O [carbachol],effective to induce sweat,no physical sensation or discomfort,,,,,,,,,,
O=C(NC[C@H]1CN(c2ccc(N3CCOCC3=O)cc2)C(=O)O1)c1ccc(Cl)s1 [rivaroxaban],,,57-66%,60-86%,dose proportional increase,absorbed rapidly,rapidly excreted,rapid absorption,high,safe and well tolerated,no evidence of accumulation,dose-proportional
